Earlier results on 2 compounds are cited in patent US20250034331A1, “POLYESTER URETHANE BIORESORBABLE ELASTOMERS WITH MICROSTRUCTURES FOR TUNABLE DRUG RELEASE AND TUNABLE DEGRADATION” (SOLESIS, INC., priority 2023, published 2025).

Bounds are passed on as bounds.

The conditions of data set [1]: humans.

For `NCCCCCCN` [HDA, hexamethylene diamine], in data set [1], the time of excretion is at most 10 h.
`C[C@@H]1C[C@H]2[C@@H]3CCC4=CC(=O)C=C[C@]4(C)[C@@]3(F)[C@@H](O)C[C@]2(C)[C@@]1(O)C(=O)CO` [dexamethasone]: the “solubility in PBS” value is recorded as “about 75 μg/mL”.
